Patent EP1321169A1, “Combination of a serotonin receptor antagonist with a histidine decarboxylase inhibitor as a medicament” (Biofrontera Pharmaceuticals AG, priority 2001, dated 2003)

Tests used:
[1] = molecular target: T1, human Histamine H2 receptor (Homo sapiens, UniProt P25021); assay: Cloned human H2 receptor binding assay, [3H]-thiotidine, COS-7 cells; conditions: n.A. = no affinity (= no inhibition of histamine activity) detected, read-out: Receptor Affinity: pK Values, measured receptor H2 (converted)
T1 construct: expressed in transfected cells; host or cells: COS-7 (transient)
T1 sequence (P25021 whole entry): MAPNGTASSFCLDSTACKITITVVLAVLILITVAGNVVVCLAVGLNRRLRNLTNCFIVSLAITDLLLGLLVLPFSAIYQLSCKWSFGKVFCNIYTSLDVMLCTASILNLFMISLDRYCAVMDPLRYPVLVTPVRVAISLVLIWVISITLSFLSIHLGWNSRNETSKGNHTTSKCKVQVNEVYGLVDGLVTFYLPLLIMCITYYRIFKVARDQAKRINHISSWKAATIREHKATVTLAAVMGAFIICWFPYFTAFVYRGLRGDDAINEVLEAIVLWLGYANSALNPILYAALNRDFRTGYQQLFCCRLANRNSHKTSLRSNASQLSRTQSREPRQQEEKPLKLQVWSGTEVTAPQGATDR
Experimental: (§1) COS-7 cells were transiently transfected with an expression plasmid pCineohH1, pCineohH2, pCineohH3 and pCineohH4 encoding the human Histamine H1, H2 H3 or H4 receptor, respectively. Transfected cells were harvested after 48 h, homogenized in ice-cold 50 mM Na2/potassium phosphate buffer (pH 7.4) and used for radioligand binding studies. Cell homogenates (40 - 50 µg of protein) were incubated for 30 min at 25°C in 50 mM Na2/potassium phosphate buffer (pH 7.4) in 400 µl with the various concentrations of either [^3H]-mepyramine, [^3H]-thiotidine, [^3H]-R-α-Methylhistamine, and [^3H]-pyramilamine for cells expressing recombinant human H1, H2, H3 and H4 receptors, respectively. The nonspecific binding was defined in the presence of 1 µM mianserin. In displacement studies, cell homogenated were incubated either with 1 nM [^3H]-mepyramine, 15 nM [^3H]-thiotidine, 0.5 nM [^3H]-R-α-Methylhistamine, or 15 nM [^3H]-pyramilamine and increasing concentrations of competing ligands. The incubations were stopped by rapid dilution with 3 ml of ice-cold 50 mM Na2/potassium phosphate buffer (pH 7.4). The bound radioactivity was separated by filtration through Whatman GF/C filters that had been treated with 0.3 % polyethyleneimine. Filters were washed twice in 3 ml of buffer and radioactivity retained on the filters was measured by liquid scintillation counting.

[2] = system: human histamine receptors; assay: Cloned human H1, H2, H3 and H4 receptor binding assay (summary statement); conditions: statement in words
Experimental: as §1

[3] = repeated administration; cited from earlier work

SMILES	Ki [1]	affinity for the human histamine receptors [2]	sedative effects [3]	tissue histamine content [3]
CCOc1ccc2c(c1)Sc1cccc(O)c1C2=C1CCN(C)CC1 [4-(6-Ethoxy-1-hydroxy-thioxanthen-9-yliden)-1-methyl-piperidine]	3.24 µM	–	–	–
CCOc1ccc2c(c1)Sc1cccc(OC)c1C2=C1CCN(C)CC1 [4-(6-Ethoxy-1-methoxy-thioxanthen-9-yliden)-1-methyl-piperidine]	2.04 µM	–	–	–
COc1cccc2c1C(=C1CCN(C)CC1)c1ccc(C(C)C)cc1S2 [4-(6-Isopropyl-1-methoxy-thioxanthen-9-yliden)-1-methyl-piperidine]	1.05 µM	–	–	–
N[C@@](CF)(Cc1cnc[nH]1)C(=O)O [FMH, (S)-α-fluoromethylhistidine]	–	low affinity	only very mild sedative effects	strong reduction
